Calls of active or inactive are those of the source.
Assays:
Type in all cases: functional, cell-based
SK-HEP1 = assay: Cytotoxicity against human SK-HEP1 cells assessed as reduction in cell viability at 40 uM measured after 72 hrs by MTS assay
COLO 205 = assay: Cytotoxicity against human COLO 205 cells assessed as reduction in cell viability at 40 uM measured after 72 hrs by MTS assay
HCT-8 = assay: Cytotoxicity against human HCT-8 cells assessed as reduction in cell viability at 40 uM measured after 72 hrs by MTS assay
HCT-116 = assay: Cytotoxicity against human HCT-116 cells assessed as reduction in cell viability at 40 uM measured after 72 hrs by MTS assay
KM12 = assay: Cytotoxicity against human KM12 cells assessed as reduction in cell viability at 40 uM measured after 72 hrs by MTS assay
RKO = assay: Cytotoxicity against human RKO cells assessed as reduction in cell viability at 40 uM measured after 72 hrs by MTS assay
SW480 = assay: Cytotoxicity against human SW480 cells assessed as reduction in cell viability at 40 uM measured after 72 hrs by MTS assay
SW-620 = assay: Cytotoxicity against human SW-620 cells assessed as reduction in cell viability at 40 uM measured after 72 hrs by MTS assay
BT-549 = assay: Cytotoxicity against human BT-549 cells assessed as reduction in cell viability at 40 uM measured after 72 hrs by MTS assay
HCC38 = assay: Cytotoxicity against human HCC38 cells assessed as reduction in cell viability at 40 uM measured after 72 hrs by MTS assay
HCC70 = assay: Cytotoxicity against human HCC70 cells assessed as reduction in cell viability at 40 uM measured after 72 hrs by MTS assay
HCC1428 = assay: Cytotoxicity against human HCC1428 cells assessed as reduction in cell viability at 40 uM measured after 72 hrs by MTS assay
Hs-578T = assay: Cytotoxicity against human Hs-578T cells assessed as reduction in cell viability at 40 uM measured after 72 hrs by MTS assay
MDA-MB-231 = assay: Cytotoxicity against human MDA-MB-231 cells assessed as reduction in cell viability at 40 uM measured after 72 hrs by MTS assay
MDA-MB-435 = assay: Cytotoxicity against human MDA-MB-435 cells assessed as reduction in cell viability at 40 uM measured after 72 hrs by MTS assay
MDA-MB-468 = assay: Cytotoxicity against human MDA-MB-468 cells assessed as reduction in cell viability at 40 uM measured after 72 hrs by MTS assay
MCF7 = assay: Cytotoxicity against human MCF7 cells assessed as reduction in cell viability at 40 uM measured after 72 hrs by MTS assay
SK-BR-3 = assay: Cytotoxicity against human SK-BR-3 cells assessed as reduction in cell viability at 40 uM measured after 72 hrs by MTS assay
T47D = assay: Cytotoxicity against human T47D cells assessed as reduction in cell viability at 40 uM measured after 72 hrs by MTS assay

Measured: Activity

CC1=C[C@H](c2cc3ccc(=O)oc3cc2O[C@@H]2O[C@H](CO[C@@H]3OC[C@](O)(CO)[C@H]3O)[C@@H](O)[C@H](O)[C@H]2O)[C@](C)(/C=C/c2cc3ccc(=O)oc3cc2O[C@@H]2O[C@H](CO)[C@@H](O)[C@H](O)[C@H]2O)CC1
inactive: all assays above

CC1=C[C@H](c2cc3ccc(=O)oc3cc2O[C@@H]2O[C@H](COC3OC[C@@H](O)[C@H](O)[C@H]3O)[C@@H](O)[C@H](O)[C@H]2O)[C@@](C)(/C=C/c2cc3ccc(=O)oc3cc2O[C@@H]2O[C@H](CO)[C@@H](O)[C@H](O)[C@H]2O)CC1 (stereo partly drawn)
inactive: all assays above

CC1=C[C@H](c2cc3ccc(=O)oc3cc2O[C@@H]2O[C@H](COC3OC[C@@H](O)[C@H](O)[C@H]3O)[C@@H](O)[C@H](O)[C@H]2O)[C@](C)(/C=C/c2cc3ccc(=O)oc3cc2O[C@@H]2O[C@H](COC3OC[C@@H](O)[C@H](O)[C@H]3O)[C@@H](O)[C@H](O)[C@H]2O)CC1 (stereo partly drawn)
inactive: all assays above

CC1=C[C@H](c2cc3ccc(=O)oc3cc2O[C@@H]2O[C@H](CO)[C@@H](O)[C@H](O)[C@H]2O)[C@](C)(/C=C/c2cc3ccc(=O)oc3cc2O[C@@H]2O[C@H](COC3OC[C@@H](O)[C@H](O)[C@H]3O)[C@@H](O)[C@H](O)[C@H]2O)CC1 (stereo partly drawn)
inactive: all assays above

CC1=C[C@@H](c2cc3ccc(=O)oc3cc2O[C@@H]2O[C@H](CO)[C@@H](O)[C@H](O)[C@H]2O)[C@@](C)(/C=C/c2cc3ccc(=O)oc3cc2O[C@@H]2O[C@H](COC3OC[C@@H](O)[C@H](O)[C@H]3O)[C@@H](O)[C@H](O)[C@H]2O)CC1 (stereo partly drawn)
inactive: all assays above

CC1=C[C@H](c2cc3ccc(=O)oc3cc2O[C@@H]2O[C@H](COC3OC[C@@H](O)[C@H](O)[C@H]3O)[C@@H](O)[C@H](O)[C@H]2O)[C@](C)(/C=C/c2cc3ccc(=O)oc3cc2O[C@@H]2O[C@H](CO)[C@@H](O)[C@H](O)[C@H]2O)CC1 (stereo partly drawn)
inactive: all assays above

CC1=C[C@@H](c2cc3ccc(=O)oc3cc2O[C@@H]2O[C@H](COC3OC[C@@H](O)[C@H](O)[C@H]3O)[C@@H](O)[C@H](O)[C@H]2O)[C@@](C)(/C=C/c2cc3ccc(=O)oc3cc2O[C@@H]2O[C@H](COC3OC[C@@H](O)[C@H](O)[C@H]3O)[C@@H](O)[C@H](O)[C@H]2O)CC1 (stereo partly drawn)
inactive: all assays above

Reference: ChEMBL document CHEMBL4819021, “Paratrimerins J-Y, Dimeric Coumarins Isolated from the Stems of Paramignya trimera” (J Nat Prod, 2021)
